We go through 15 compounds from US6455286B1, “Psoralens for pathogen inactivation” (Cerus Corporation, priority 1997, dated 2002).

Entries after “also recorded” stand apart in the source; their conditions may differ.

The subject of one data set is R17. The data set can be described thus: R17 bacteriophage screen (photoinactivation, plaque assay on Hfr 3000 bacteria). To be noted: for Average log Inactivation, 4 μM: compound at 4 μM; for Average log Inactivation, 4 μM / Average log Inactivation, 32 μM: 15% FBS in DMEM, UVA 1 J/cm^2, average of 1-4 replicates; for Average log Inactivation, 32 μM: compound at 32 μM. It is filed as cell-based. An excerpt: A discussion of inactivation of pathogens other than the R17 model discussed below can be found in U.S. Pat. No. 5,593,823. This reference enables the selection criteria for use in pathogen inactivation of blood products for the compounds of the present invention. The screening technique used to evaluate the compounds of the present invention is to perform a bacteriophage screen; an assay which determines nucleic acid binding of test compounds. A screen of this type, an R17 screen, is described in detail in EXAMPLE 13, below.
The R17 bacteriophage screen is believed to be predictive of HIV inactivation efficiency, as well as the efficiency of compounds against many other viruses. It is a small, single stranded RNA phage. […] Further, single stranded RNA pathogens are more difficult to inactivate because psoralens can neither intercalate between base pairs, as with double-stranded nucleic acids, nor form diadducts which function as interstrand crosslinks. Thus it is expected that when inactivation of R17 is achieved, these same conditions will cause the inactivation of many viruses and bacteria.
The R17 was grown up in Hfr 3000 bacteria, approximate titer 5×10^11. (R17 and Hfr 3000 were obtained from American Tissue Culture Collection (ATCC), Washington, D.C.) The R17 phage stock was added to a solution of 15% fetal bovine serum in DMEM to a final phage concentration of 10^8/mL. An aliquot (0.5 mL) was transferred to a 1.5 mL snap-top polyethylene tube. An aliquot (0.004-0.040 mL) of the test compound stock solution prepared in water, ethanol or dimethylsulfoxide at 0.5 mM was added to the tube. Compounds were tested at concentrations between 4 μM and 32 μM. (AMT is commercially available from HRI, Inc., Concord, Calif.; 8-MOP is commercially available from Sigma, St. Louis, Mo.). The tubes were placed in a light device similar to that described in U.S. Pat. No. 5,593,823 (Baxter Ultraviolet Irradiation System, modified #4R4440) and irradiated at a dose setting of 1 J/cm^2. Sterile 13 mL dilution tubes were prepared; each test compound required one tube with 0.4 mL of LB broth and five tubes containing 0.5 mL of LB broth. To make the dilutions, a 0.100 mL aliquot of the irradiated solution of phage and test compound was added to the first dilution tube of 0.4 mL of media then 0.020 mL of this solution was added to the second tube of 0.5 mL medium (1:25). The second solution was then diluted serially (1:25) into the remaining tubes. To each diluted sample was added 0.050 mL of Hfr 3000 bacteria cultured overnight and 3 mL of molten LB top agar and the mixed materials were poured onto LB broth plates. After the top agar hardened, the plates were incubated at 37° C. overnight. The plaque forming units were then counted the following morning and the titer of the phage remaining after phototreatment was calculated based on the dilution factors.
The following controls were run: the “phage only” in which phage was not treated with test compound and not irradiated (listed as “starting titer” in the tables below); and the “dark” control in which the phage/test compound solution was not irradiated before it was diluted and plated. A “UV only” control in which the phage was illuminated without treatment with test compound was not run with these experiments.

A further data set deals with cell-free HIV (HIV-1). The data set can be described thus: Inactivation of cell-free HIV, residual infectivity by MT-2 microtiter plaque assay. It is filed as cell-based. As to conditions: compound at 32 μM; 1 minute irradiation 320-400 nm (20 mW/cm^2); DMEM/15% FBS. The procedure: Pathogen inactivation efficiency of three compounds tested in the previous example were evaluated by examining the ability of the compounds to inactivate cell-free virus (HIV). Inactivation of cell-free HIV was performed as follows.
Small aliquots of the compounds were added to stock HIV-1 to a compound concentration of 32 μM in a total of 0.5 mL. The stock HIV (10^5-10^7 plaque forming units/mL) was in DMEM/15% FBS. The 0.5 mL test aliquots were placed in 24 well polystyrene tissue culture plates and irradiated with 320-400 nm (20 mW/cm^2) for 1 minute on a device similar to the device of EXAMPLE 13. Controls included HIV-1 stock only, HIV-1 plus UVA only, and HIV-1 plus the highest concentration of each psoralen tested, with no UVA. Post irradiation, all samples were stored frozen at −70° C. until assayed for infectivity by a microtiter plaque assay. Aliquots for measurement of residual HIV infectivity in the samples were withdrawn and cultured.
Residual HIV infectivity was assayed using an MT-2 infectivity assay. (Previously described in Hanson, C. V., Crowford-Miksza, L. and Sheppard, H. W., J. Clin. Micro 28:2030 (1990)). The assay medium was 85% DMEM (with a high glucose concentration) containing 100 μg of streptomycin, 100 U of penicillin, 50 μg of gentamicin, and 1 μg of amphotericin B per mL, 15% FBS and 2 μg of Polybrene (Sigma Chemical Co., St. Louis, Mo.) per mL. Test and control samples from the inactivation procedure were diluted in a mixture of 50% assay medium and 50% normal human serum. The samples were serially diluted directly in 96-well plates (Corning Glass Works, corning, N.Y.). The plates were mixed on an oscillatory shaker for 30 seconds and incubated at 37° C. in a 5% CO2 atmosphere for 1 to 18 hours. […] After 24 to 48 hours, the orange fluorescence-stained microplaques were visualized by placing the plates on an 8,000 μW/cm^2 304 nm UV light box (Fotodyne, Inc., New Berlin, Wis.). The plaques were counted at a magnification of ×20 to ×25 through a stereomicroscope.

The conditions of data set [1]: Ames assay / bacterial assays, absence of light; cited from earlier work.
A further data set deals with DNA. As to conditions: cited from earlier work.

`Cc1oc2c(C)c3oc(=O)cc(COCCN)c3cc2c1C` [Compound 38, 4-(4-Amino-2-oxa)butyl-4′,5′,8-trimethylpsoralen]: in the data set on R17, the “Average log Inactivation, 4 μM” value came out at 2.2 log and the “Average log Inactivation, 32 μM” value is on record as “≧4.0 log”.
Consider `Cc1cc2cc3c(C)c(CCN)c(=O)oc3c(C)c2o1` [Compound 35, 3-amino ethyl-4,5′,8-trimethylpsoralen], for which the “Average log Inactivation, 4 μM” value with R17 is given as 1.6 log.
For `Cc1cc2cc3c(C)c(COCCN)c(=O)oc3c(C)c2o1` [3-(4-amino-2-oxa)butyl-4,5′,8-trimethylpsoralen], the “Effectiveness of R17 inactivation relative to AMT” value with R17 (similar inactivation at less than half the AMT concentration, data not shown) is “at least twice as effective as AMT”.
Consider `Cc1cc2cc3c(C)cc(=O)oc3c(CN)c2o1.Cl` [Compound 33, 8-aminomethyl-4,5′-dimethylpsoralen hydrochloride], for which, in the data set with R17, the “Average log Inactivation, 4 μM” value was 0.4 log and the “Average log Inactivation, 32 μM” value turned out to be 1.7 log.
For `Cc1oc2c(C)c3oc(=O)c(CN)c(C)c3cc2c1C` [Compound 34, 3-aminomethyl-4,4′,5′,8-tetramethylpsoralen], in the data set on cell-free HIV (HIV-1), the “Log Kill of cell-free HIV” value stood at 3.5 log. The “Average log Inactivation, 4 μM” value with R17 came out at 1.4 log.
Turning to `Cc1oc2c(COCCN)c3oc(=O)cc(C)c3cc2c1C` [Compound 40, 8-(4-amino-2-oxa)butyl-4,4′,5′-trimethylpsoralen], in the data set with R17, the “Average log Inactivation, 4 μM” value is 2.1 log and the “Average log Inactivation, 32 μM” value is over 6.3 log.
On to `Cc1coc2cc3oc(=O)cc(CN)c3cc12` [Compound 42, 4-aminomethyl-4′-methylpsoralen], for which, in the data set with R17, the “Average log Inactivation, 4 μM” value was determined as 0 log and the “Average log Inactivation, 32 μM” value was 1.2 log.
On to `Cc1oc2cc3oc(=O)ccc3c(COCCN)c2c1C` [Compound 39, 5-(4-amino-2-oxa)butyl-4′,5′-dimethylpsoralen], for which, in the data set on R17, the “Average log Inactivation, 4 μM” value came to 1.6 log and the “Average log Inactivation, 32 μM” value was over 6.6 log.
In the case of `Cc1oc2c(C)c3oc(=O)cc(CN)c3cc2c1C` [Compound 36, 4-aminomethyl-4′,5′,8-trimethylpsoralen], in the data set with R17, the “Average log Inactivation, 4 μM” value was found to be 0.1 log and the “Average log Inactivation, 32 μM” value was determined as 1.1 log.
`Cc1coc2c(C)c3oc(=O)c(CN)c(C)c3cc12.Cl` [Compound 31, 3-aminomethyl-4,4′,8-trimethylpsoralen hydrochloride]: the “Log Kill of cell-free HIV” value with cell-free HIV (HIV-1) worked out at 1.9 log. Besides, the “Average log Inactivation, 4 μM” value with R17 came to 3.1 log.
With `Cc1oc2c(C)c3oc(=O)cc(C)c3cc2c1CN` [AMT, 4′-aminomethyl-4,5′,8-trimethylpsoralen, reference compound], in data set [1], the Mutagenicity entry was “highly mutagenic; also recorded: significant levels of mutagenicity”. For the same compound, in the data set with R17, the “Average log Inactivation, 4 μM” value was 1.6 log and the “Average log Inactivation, 32 μM” value is listed as over 6.5 log.
`Cc1coc2c(C)c3oc(=O)c(COCCN)c(C)c3cc12` [Compound 37, 3-(4-amino-2-oxa)butyl-4,4′,8-trimethylpsoralen]: in the data set on R17, the “Average log Inactivation, 4 μM” value came out at 4.3 log and the “Average log Inactivation, 32 μM” value was over 6.5 log.
Regarding `Cc1oc2c(CN)c3oc(=O)cc(C)c3cc2c1C` [Compound 32, 8-aminomethyl-4,4′,5′-trimethylpsoralen], in the data set on cell-free HIV (HIV-1), the “Log Kill of cell-free HIV” value stood at 1.1 log. Further, the “Average log Inactivation, 4 μM” value in the data set with R17 is on record as 1.1 log.
For the compound `Cc1coc2cc3oc(=O)c(CN)cc3cc12` [Compound 41, 3-aminomethyl-4′-methylpsoralen], in the data set with R17, the “Average log Inactivation, 4 μM” value is on record as 0 log and the “Average log Inactivation, 32 μM” value is recorded as 0.6 log.
With `COc1c2occc2cc2ccc(=O)oc12` [Compound 8-MOP, 8-methoxypsoralen], in the data set with DNA, the “Photoactivated binding to nucleic acids” value is “relatively low”. For the same compound, the Mutagenicity entry in data set [1] is on record as “low mutagenicity”.
